96 compounds from PubChem BioAssay AID463229 (Broad Institute, 2010) can be followed below.

In general, AC50 refers to the midpoint of the concentration-response curve, whichever way the signal moves.

SMILES strings stand for the structures. “And” between values parts separate entries of the source, which are not always exact repeats. Equal entries are not always repeated.

The assay has as its system INS-1E rat beta cells, no cytokines, CellTiter-Glo ATP, 48 h. The experiment in a line: cytokine-free beta-cell viability effect – INS-1E rat cells, ATP luminescence, cherry pick, counter-screen for beta-cell apoptosis protection project, dose response (AID 463229). (A counterscreen serves to expose hits that act by an unwanted route or on another target.)
Regarding `Cc1cc(C)n(-c2nc3ccccc3c(=O)n2OCC#N)n1`, the AC50 is 12.4 µM.

For the compound `O=C(Nc1cc(S(=O)(=O)N2CCCCC2)ccc1Cl)c1ccccc1NS(=O)(=O)c1ccc(F)cc1`, the AC50 is 3.66 µM. The figure for `COc1ccc(NS(=O)(=O)c2ccc(-c3cnc(C4CC4)o3)cc2)cc1OC` is 6.58 µM; for `COc1ccc(NS(=O)(=O)c2ccc(N3CCOCC3)c(N)c2)cc1` it is 7.12 µM.

On to `Cc1ccc(N=Nc2c(O)ccc3n[nH]nc23)cc1`, for which the AC50 is 4.37 µM. In the case of `COc1cccc(/C=N/NC(=O)c2cc3cc([N+](=O)[O-])ccc3s2)c1O` it was 7.08 µM. As for `O=C(Nc1ccc(F)cc1)Nc1cc(OCC(F)(F)F)cc(OCC(F)(F)F)c1`, the AC50 is 2.25 µM.

On to `COc1cc(NC(=O)COc2cc(O)c3c(c2)OC(C)(C)CC3=O)cc(OC)c1OC`, for which the AC50 was 6.45 µM.

On to `CCCCCCc1cc2cc(-c3nnc(-c4ccccc4O)o3)c(=O)oc2cc1O`, for which the AC50 is 7.66 µM.

Regarding `CCCCn1c(/C=N/Nc2nc3ccccc3[nH]2)nc2ccccc21`, the AC50 is 14.1 µM. As for `O=S(=O)(/C(=C/c1ccc(C(F)(F)F)cc1)c1nc2ccccc2[nH]1)c1ccccc1`, the half-maximal activity concentration (AC50) is 5.45 µM.

Take `Cc1cnc(NC(=O)CN2CCN(c3ccccn3)CC2)s1`: the AC50 is 4.35 µM.

`Cc1cccc(NC(=S)N/N=C/c2ccc([N+](=O)[O-])s2)c1`: the concentration at half-maximal activity (AC50) is 7.67 µM. In the case of `CCOC(=O)c1sc(NC(=O)Nc2cccc(Cl)c2)cc1C` it was 7.53 µM; in that of `O=S(=O)(c1ccc(Cl)cc1)N1CCN(Cc2ccc(O)c3ncccc23)CC1`, 7.13 µM. In the case of `CCOC(=O)C1CCCN(S(=O)(=O)c2ccc(S(=O)(=O)N(CC)CC)cc2)C1` (stereo unspecified) it was 3.8 µM; in that of `Cc1csc2ncnc(NCCc3ccccn3)c12`, 6.88 µM; in that of `C/C(=N\NC(=O)c1cccc(Br)c1)c1ccccn1`, 1.32 µM. In the case of `COc1ccc(N=Nc2ccc(O)c3ncccc23)cc1` it was 4.26 µM; in that of `Cc1ccc(S(=O)(=O)NCc2ccncc2)cc1C`, 4.92 µM. For the compound `CCC(=O)NC(c1cccs1)c1cc(Cl)c2cccnc2c1O` (stereo unspecified), the AC50 is 5.49 µM. Turning to `COc1c(CC=C(C)C)cc(C2CC(=O)c3c(O)cc(O)cc3O2)cc1CC=C(C)C` (stereo unspecified), the AC50 was 4.05 µM. Take `Cc1ccc2nc(-c3cccc(-c4cccc(Cl)c4)c3)c(NCc3ccccc3)n2c1`: the AC50 was 7.11 µM.

For the compound `O=c1cc(N2CCN(c3cccc(Cl)c3)CC2)[nH]c(=O)n1C1CCCCC1`, the AC50 was 1.66 µM. Consider `Nc1c(Cl)ncnc1N/N=C/c1ccccn1`, for which the AC50 is 2.07 µM. Turning to `CCOc1ccc(C(=O)N/N=C(\c2ccccc2)c2ccccn2)cc1`, the AC50 was 4.89 µM. In the case of `COc1ccc([N+](=O)[O-])c(S(=O)(=O)c2ccccc2)n1` it was 7.36 µM; in that of `COc1ccc(O)c(/C=N/NC(=O)c2cccc(N3CCCC3=O)c2)c1`, 14.8 µM. The figure for `N=c1ccn(CC(=O)c2ccc(-c3ccccc3)cc2)cc1` is 1.94 µM. In the case of `c1ccc(CCNc2nc(-c3ccccn3)nc3ccccc23)cc1`, the AC50 is 4.92 µM. Take `CC(=O)Nc1ccc(S(=O)(=O)Nc2ccc(N3CCCCC3)cc2)cc1`: the AC50 is 4.33 µM. The figure for `COc1ccc(-n2cc(-c3ccccc3)[n+]3c2CCCCC3)cc1` is 1.94 µM; for `COC(=O)[C@H](CC(C)C)N(Cc1ccccc1)S(=O)(=O)N(Cc1ccccc1)[C@@H](CC(C)C)C(=O)OC` it is 15.5 µM. The figure for `O=Nc1c(O)c2ccccc2c2ccccc12` is 7.61 µM.

For the compound `Cc1ccc2nc(/C(C#N)=C\c3ccc([N+](=O)[O-])o3)[nH]c2c1`, the AC50 was 2.96 µM. On to `CC(NCC(O)COCCC12CC3CC(CC(C3)C1)C2)c1ccccc1` (stereo unspecified), for which the AC50 is 8.29 µM. With `CCN(CC)c1ccc(/C=N/NC(=O)CCC(=O)NCc2ccccc2)c(O)c1`, the AC50 is 7.22 µM. Take `O=C(OCCOc1cccc(Cl)c1)c1cc(S(=O)(=O)N2CCCCC2)ccc1N1CCOCC1`: the AC50 was 7.78 µM. The figure for `Cc1ccc(C)c(NC(=O)/C(C#N)=C/c2cn(CC(=O)NCc3ccco3)c3ccccc23)c1` is 5.47 µM. `COc1ccc(S(=O)(=O)Nc2cc(SCC(=O)O)c(O)c3ccccc23)cc1`: the AC50 was 8.19 µM.

For `c1ccc(-c2nnc(-c3ccccn3)nc2NC2CCCCC2)cc1`, the AC50 was 3.52 µM. The figure for `CCOc1cc(/C=C2\COc3ccccc3C2=O)cc(Br)c1OCC(=O)N(C)C` is 11.1 µM. Regarding `Cc1ccc(C2C(C=Nc3c(C)n(C)n(-c4ccccc4)c3=O)=C(c3ccccc3)Oc3ccccc32)cc1` (stereo unspecified), the AC50 is 7.38 µM.

For `COc1ccc2nc3cc(Cl)ccc3c(Nc3cc(CN4CCCC4)c(O)c(CN4CCCC4)c3)c2n1`, the AC50 was 19.5 µM. With `O=C(N/N=C/c1ccc[nH]1)c1ccc(COc2cccc3cccnc23)cc1`, the AC50 was 1.92 µM.

With `O=C(N/N=C/c1ccccc1O)c1ccc2c(c1)OCO2`, the AC50 was 7.41 µM.

With `Cc1ccccc1NC(=O)/C=C/c1ccc([N+](=O)[O-])s1`, the AC50 was 6.96 µM. Turning to `COc1ccccc1NC(=O)CN(c1ccc(C23CC4CC(CC(C4)C2)C3)cc1)S(C)(=O)=O`, the half-maximal activity concentration (AC50) is 5.11 µM. As to `Cc1ccc(CSC(Nc2ccc(F)cc2)=C(C#N)C#N)cc1`, the AC50 is 4.11 µM.

As to `COc1ccc(C[C@H]2CN3C(=NC[C@@H]3Cc3ccccc3)N2CCNC(=O)CCC2CCCCC2)cc1`, the AC50 was 12.1 µM.

In the case of `CSc1nc(N)nc2c1ncn2CC(=O)N1CCN(Cc2c(C)cc(C)cc2C)CC1`, the AC50 was 2.65 µM. The figure for `Cc1ccc(-n2c(-c3ccccc3)c[n+]3c2CCc2ccccc2-3)c(C)c1` is 1.91 µM. As for `CC(=O)NC(c1ccccc1)c1cc(Cl)c2cccnc2c1O` (stereo unspecified), the concentration at half-maximal activity (AC50) was 6.26 µM.

With `O=C(Nc1nc2ccc(F)cc2s1)c1ccccn1`, the AC50 is 4.43 µM. The figure for `Oc1ccccc1/C=N/Nc1nc2ccccc2o1` is 4.62 µM. The figure for `C=C1C(=O)O[C@@H]2C[C@@H](C)[C@@H]3C4OC4C(=O)[C@@]3(C)[C@@H](O)[C@H]12` (stereo partly specified) is 7.57 µM.

As to `CN1/C(=C\C=N\NC(=O)c2ccc(O)cc2)C(C)(C)c2ccccc21`, the AC50 was 7.5 µM. As to `Fc1ccccc1/C=N/Nc1nc(-c2ccccn2)nc2ccccc12`, the AC50 is 3.49 µM. On to `O=C(N/N=C/c1cc([N+](=O)[O-])ccc1O)c1cc(-c2ccccc2)nc2ccccc12`, for which the AC50 was 5.78 µM. The figure for `O=[N+]([O-])c1ccc(O)c(/C=N/NC(=S)Nc2ccc(Cl)cc2Cl)c1` is 17.9 µM. In the case of `CCCCCCCCCCCCCCCC[N+](C)(C)C` it was 7.81 µM. For the compound `COc1cc(SC#N)ccc1N=Cc1c(C)[nH]n(-c2ccc(C)c(C)c2)c1=O`, the AC50 is 5.85 µM.

With `C=CCn1c(SCC(=O)c2[nH]c(C)c(C(=O)OCC)c2C)nc2scc(-c3ccc(OC)c(OC)c3)c2c1=O`, the AC50 was 3.53 µM.

As for `CCN1/C(=C\C=C\C2=[N+](CC)c3ccccc3C2(C)C)C(C)(C)c2ccccc21`, the AC50 is below 0.195 µM.

Turning to `O=C(Nc1ccc(OC(F)F)cc1)Nc1cccc(C(F)(F)F)c1`, the AC50 is 7.65 µM. Regarding `c1ccc2c(c1)OCC(CNc1ncnc3sccc13)O2` (stereo unspecified), the AC50 is 1.6 µM. Turning to `CC(=O)c1ccc(NC(=S)NCc2cccnc2)cc1`, the AC50 was 5.53 µM. As for `O=C(Nc1ccc([N+](=O)[O-])cc1)Nc1ccc(Cl)cc1F`, the AC50 is 6.71 µM.

Consider `Fc1ccc(CN(Cc2ccccc2)C(c2cccs2)c2nnnn2C2CCCCC2)cc1` (stereo unspecified), for which the AC50 is 5.93 µM. In the case of `CC[C@H](C)[C@@H](C(=O)NCCCCCCCCCCC(=O)N1CCN(C(=O)OC(C)(C)C)CC1)n1cc(CCCCCNC(=O)OC(C)(C)C)nn1`, the AC50 was 5.92 µM.

For the compound `FC(F)(F)c1nc2ccccc2n2c(-c3ccc(Cl)cc3)nnc12`, the AC50 is 7.14 µM. `CC(NC(=S)NC1CCCCC1)c1ccc(C(C)(C)C)cc1` (stereo unspecified): the half-maximal activity concentration (AC50) was 11.2 µM. As to `O=C(c1cc(-c2ccccc2Cl)nc2ccccc12)N1CCN(c2ccccn2)CC1`, the half-maximal activity concentration (AC50) is 4.44 µM. For the compound `CC(C)OCCCNc1ncnc2c1[nH]c1ccccc12`, the AC50 was 4.34 µM.

As for `O=C(Cn1c(-c2ccccc2)c[n+]2ccsc12)c1ccc([N+](=O)[O-])cc1`, the AC50 was 6.04 µM.

For the compound `O=C(N/N=C/c1ccc(O)c2ncccc12)c1cccc(Br)c1`, the AC50 was 3.05 µM. The figure for `Cc1nc(N/N=C/c2ccccn2)sc1C` is 9.42 µM. The figure for `Cc1ccc(/C=N/Nc2ccnc3cc(Cl)ccc23)c(C)c1` is 13.4 µM; for `Cc1cc(C)n(Cc2ccc(NC(=O)c3ccc(COc4ccccc4Br)cc3)cc2)n1` it is 8.33 µM; for `CCCCC(=O)NC(c1ccccc1Cl)c1ccc2cccnc2c1O` (stereo unspecified) it is 2.09 µM. In the case of `COc1ccc(-c2cn(-c3ccc(OC)cc3)c3[n+]2-c2ccccc2CC3)cc1` it was 0.806 µM; in that of `O=S(=O)(NCc1ccncc1)c1ccc(Br)s1`, 4.25 µM; in that of `c1ccc(CNc2c(-c3cccc(SC4CCCCC4)c3)nc3ccccn23)cc1`, 2.98 µM. `N#CC1=C(N)Oc2c(ccc3cccnc23)C1c1cccnc1` (stereo unspecified): the AC50 was 7.5 µM. The figure for `Cc1cc(C)n(-c2nc(NCCN(C)C)c3c4c(sc3n2)CCCC4)n1` is 9.54 µM. With `C/C(=N\NC(=O)c1ccccc1OCc1ccc(F)cc1)c1ccccn1`, the AC50 is 8.35 µM.

Regarding `CCOC(=O)C1CCN(C(=O)c2c(C)oc3c2C(=O)c2ccccc2C3=O)CC1`, the AC50 was 17.4 µM.

For the compound `O=S(=O)(NCC1CCCO1)c1ccc(-c2ccc(S(=O)(=O)NCC3CCCO3)cc2)cc1` (stereo unspecified), the AC50 was 4.95 µM.

Turning to `O=C(N/N=C\c1cc(Cl)ccc1O)c1ccc(S(=O)(=O)N2CCCCC2)cc1`, the AC50 is 6.44 µM. The figure for `O=C(NCCc1cn2ccccc2n1)c1cc(COc2ccc3ncccc3c2)on1` is 8.04 µM. Take `Cc1ccc(-c2cn(-c3ccccc3)c3[n+]2CCCS3)cc1`: the AC50 was 1.97 µM and 2.98 µM. On to `Cc1nc2ccccc2n1/N=C/c1ccc([N+](=O)[O-])s1`, for which the AC50 is 1.92 µM. In the case of `CC(C)(C)c1cc[n+](C2=C([O-])c3ccccc3C(=O)/C2=N\S(=O)(=O)c2cccs2)cc1` it was 7.44 µM; in that of `CCCCCn1c(=O)c(C(=O)NCc2ccccc2Cl)c(O)c2ccccc21`, 6.84 µM.

For `CCOC(=O)c1cnc(-n2nc(C)cc2C)nc1Nc1ccc(O)cc1`, the AC50 was 1.41 µM. In the case of `Cc1cc(/C=C2/SC(=S)N(c3ccc([N+](=O)[O-])cc3)C2=O)c(C)n1-c1cccnc1` it was 0.912 µM.
